Reference: paper PMC5847527, “Identification of a novel 2-oxindole fluorinated derivative as in vivo antitumor agent for prostate cancer acting via AMPK activation” (Scientific Reports, 2018)

Experiments:
Type in all cases: cell-based, human
Raptor = Raptor phosphorylation on Ser792 by Western blot in PC-3 and LNCaP cells; settings: 25 µM
Procedure: To further confirm the compound 8c-induced activation of AMPK, PC-3 and LNCaP cells were incubated with the compound for 1 h and 24 hours in the presence of the AMPK inhibitor Dorsomorphin. […] Accordingly, ACC phosphorylation was increased at 1 h and 24 h and prevented by Dorsomorphin in both cell lines. AMPK inhibits mTORC1 through phosphorylation of Raptor on two well-conserved serine residues (ser722 and ser792) inducing cell-cycle arrest in response to an energy stress. To further support the 8c-induced AMPK activation, we determined Raptor phosphorylation on Ser792 in prostate cells.
Figure 5 AMPK activation by compound 8c in prostate cancer cells. (A) PC-3 and LNCaP cells were treated with vehicle, 25 µM compound 8c, 25 µM compound 8c + 5 μM Dorsomorphin (8c + D) or 5 μM Dorsomorphin (D), for 1 hour or 24 hours and levels of the phosphorylated AMPK (pAMPK), phosphorylated ACC (pACC), phosphorylated Raptor (pRaptor) forms and HIF1α were determined by Western blot. Upper panel, representative Western blot of three different experiments. β-tubulin (β-Tub) serves as a loading control. […] (B) Cell viability monitored by MTT assay in PC-3 and LNCaP cells treated with vehicle, 25 µM and 50 μM compound 8c alone or in the presence of 5 μM Dorsomorphin or transfected with control siRNA (siC) or α1AMPK-selective siRNA (siAMPK). […]

RWPE-1 cells = experiment: Cell viability by MTT assay, RWPE-1 normal prostate cells
Procedure: (§1) Figure 3 Comparison of the effect of 2-oxindole fluorinated derivatives on the proliferation of human prostate cancer cells. (A) Normal (PTN2 and RWPE-1) and cancer (PC3,DU145 and LNCaP) prostate cells were treated with different doses of the compounds for 24 hours and cell viability was monitored by MTT assay. […] (C) PC-3, DU145 and LNCaP cells were treated with 25 µM of compound 8c for different times. Values were normalized with the control and represent the mean ± SD of at least three independent experiments. *p < 0.05 and **p < 0.01 compared to control by the Student’s - test.
(§2) Human prostate cancer epithelial PC-3, DU145 and LNCaP and human prostate normal RWPE-1 cells were purchased from American Type Culture Collection (ATCC CRL-1435 CRL-1740 and CRL 11609 respectively) (Rockville, MD, USA). The human prostate normal PNT2 cell line was purchased to ECACC (European Collection of Cell cultures, Salisbury, SP4 0JG, UK). Cells were routinely grown in RPMI 1640 medium supplemented with 100 IU/ml penicillin G sodium, 100 µg/ml streptomycin sulfate, 0.25 µg/ml amphotericin B (Invitrogen, Paisley, UK) and 10% fetal calf serum. Cells were used at passages between 10–20. For treatment experiments, cells were plated and grown over night, the medium was then replaced with serum-free RPMI 1640 for 24 hours and then incubated with different doses of the compounds for the indicated times.
(§3) Cell viability was determined by 3-(4,5-dimethylthiazol-2-yl)-2,5-diphenyltetrazolium bromide (MTT) (Sigma-Aldrich) method. […] The optical density in each well was evaluated by measurement of absorbance at 490 and 650 nm using a microplate reader (ELX 800 Bio-Tek Intruments, INC). IC50 values were calculated using GraphPad Prism vs 6.0 (GraphPad Software, Inc, La Jolla, CA, USA). Cell viability was also determined by counting viable and dead cells by Trypan blue staining. Trypan blue positive and negative cells were counted using a Countess^TM automated cell counter (Invitrogen, Carlsbad, CA, USA). Results were expressed in relation to total number of cells counted.

PNT2 cells = experiment: Cell viability by MTT assay, PNT2 normal prostate cells
Procedure: as §1, §2, §3

[1] = tested on: PTN2, RWPE-1, PC3, DU145 and LNCaP prostate cells; experiment: Cell viability by MTT assay, statements for the five cell lines together
Procedure: We then study the effect of the compounds on the proliferative capacity of PC-3, DU145 and LNCaP prostate cells. We also used the prostate cell lines PTN2 and RWPE-1 which are derived from a histologically normal adult and therefore are considered as normal prostate cells, for comparison. All the compounds were tested at concentrations ranging from 1 to 100 μM.
(A) Normal (PTN2 and RWPE-1) and cancer (PC3,DU145 and LNCaP) prostate cells were treated with different doses of the compounds for 24 hours and cell viability was monitored by MTT assay. […] Values were normalized with the control and represent the mean ± SD of at least three independent experiments. *p < 0.05 and **p < 0.01 compared to control by the Student’s - test.
Human prostate cancer epithelial PC-3, DU145 and LNCaP and human prostate normal RWPE-1 cells were purchased from American Type Culture Collection (ATCC CRL-1435 CRL-1740 and CRL 11609 respectively) (Rockville, MD, USA). The human prostate normal PNT2 cell line was purchased to ECACC (European Collection of Cell cultures, Salisbury, SP4 0JG, UK). Cells were routinely grown in RPMI 1640 medium supplemented with 100 IU/ml penicillin G sodium, 100 µg/ml streptomycin sulfate, 0.25 µg/ml amphotericin B (Invitrogen, Paisley, UK) and 10% fetal calf serum. Cells were used at passages between 10–20. […]

PC-3 cells = experiment: Cell viability by MTT assay, PC-3
Procedure: as §1, §2
Cell viability was determined by 3-(4,5-dimethylthiazol-2-yl)-2,5-diphenyltetrazolium bromide (MTT) (Sigma-Aldrich) method. In brief, a total of 5000 cells/well were seeded into 12-well plate in a final volume of 1 mL. After treatments, 20 µl MTT solution (5 mg/ml in PBS) was added to the medium and cells were incubated at 37 °C for 4 h. Then, the supernatant was discarded and isopropanol was added to dissolve the formazan crystals. Treatments were carried out in triplicate. The optical density in each well was evaluated by measurement of absorbance at 490 and 650 nm using a microplate reader (ELX 800 Bio-Tek Intruments, INC). IC50 values were calculated using GraphPad Prism vs 6.0 (GraphPad Software, Inc, La Jolla, CA, USA). Cell viability was also determined by counting viable and dead cells by Trypan blue staining. Trypan blue positive and negative cells were counted using a Countess^TM automated cell counter (Invitrogen, Carlsbad, CA, USA). Results were expressed in relation to total number of cells counted.

## O=C1Nc2ccccc2C1(F)Cc1ccc(-c2ccccc2)o1 (stereo not drawn) [Compound 8c, 3-fluoro-3-((5-phenylfuran-2-yl)methyl)indolin-2-one]
Raptor
  Raptor phosphorylation on Ser792 (p-Raptor): increase in p-Raptor
RWPE-1 cells; Homo sapiens, RWPE-1, MTT, 24 hours
  IC50: > 1000 µM
RWPE-1 cells; RWPE-1, 50 μM
  inhibitory efficacy on cells viability at 50 μM: 50%
PNT2 cells; Homo sapiens, PNT2, MTT, 24 hours
  IC50: 65 µM
PNT2 cells; PNT2, 50 μM
  inhibitory efficacy on cells viability at 50 μM: 56%
[1]; 100 µM
  inhibition of cell viability at 100 µM: almost totally inhibited cell viability
[1]; 1–100 µM, dose-dependent, 24 hours
  inhibition of cell proliferation: effectively inhibited cell proliferation
PC-3 cells; Homo sapiens, PC-3, MTT, 24 hours
  IC50: 18 µM
PC-3 cells; PC-3, 50 μM
  inhibitory efficacy on cells viability at 50 μM: 84%
